# Assay results from patent US20110196000A1, “Use of succinate dehydrogenase (SDH) inhibitors in the treatment of plant species from the family of the true grasses” (Bayer CropScience AG, priority 2010, published 2011).
# Assays:
# Type in all cases: in vivo
# [1] = tested on: infection-free wheat plants of the cultivar Passat; assay: Glasshouse trial: gas exchange activity of wheat ears; conditions: development stage BBCH 75
# Outline: (§1)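 Wheat grown in 10-litre containers for 4 months under controlled glasshouse conditions, in earth/C-horizon/sand (4:2:1) substrate, fed 0.2% liquid fertilizer every two weeks and watered as needed. Bixafen effects were assessed with 10 repetitions per trial component.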
# wheat variety Ritmo [2] = assay: Plot trial in Germany: green leaf area by visual scoring; conditions: for green leaf area of the flag leaf / green leaf area of the second-from-top leaf (F-1) / green leaf area of the third-from-top leaf (F-2): sprays at BBCH 39 and 59
# Outline: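 Field plot trial in Germany, wheat variety Ritmo, bixafen products sprayed sequentially at BBCH 39 and 59 at 400 l water/ha, 5 repetitions. Green leaf area duration followed by regular visual scoring of green leaf fraction.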
# [3] = tested on: infection-free wheat plants of the cultivar Passat; assay: Glasshouse trial: green leaf area by visual scoring; conditions: for green leaf area of the flag leaf (F) / green leaf area of the second-from-top leaf (F-1) / green leaf area of the third-from-top leaf (F-2): glasshouse
# Outline: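 Infection-free wheat grown 4 months under controlled glasshouse conditions in 10-litre containers, 10 repetitions per trial component. Products applied as sequential sprays at BBCH 39 and 59 in 300 l water/ha. Duration of green leaf area scored visually at regular intervals.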
# wheat variety Ritmo [4] = assay: Plot trial: yield components; conditions: sprays at BBCH 39 and 59
# [5] = tested on: infection-free wheat plants of the cultivar Passat; assay: Glasshouse trial: size of the flag leaf
# Outline: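 Infection-free wheat grown 4 months in 10-litre containers in a glasshouse, 10 repetitions, pests and mildew controlled. Test products sprayed sequentially at BBCH 39 and 59 in 300 l water/ha; flag leaf length and width measured.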
# [6] = tested on: infection-free wheat plants of the cultivar Passat; assay: Glasshouse trial: temperature of ears and leaves as measure of transpiration activity
# Outline: as §1
# wheat variety Ritmo [7] = assay: Plot trial: chlorophyll content of leaves (pigment extraction method of Ziegler and Ehle)
# [8] = tested on: infection-free wheat plants of the cultivar Passat; assay: Glasshouse trial: time of heading (ear emergence); set-up: time of heading of wheat (ears emerged): unit not given here
# Outline: as §1
# [9] = 7 days after second fungicide application
# [10] = 14 days after second fungicide application
# [11] = 21 days after second fungicide application
# [12] = 28 days after second fungicide application
# [13] = 35 days after second fungicide application
# [14] = 42 days after second fungicide application
# [15] = 68 days after second fungicide application (so in the source)
# [16] = 75 days after second fungicide application (so in the source)
# [17] = 82 days after second fungicide application (so in the source)
# [18] = 89 days after second fungicide application (so in the source)
# [19] = 96 days after second fungicide application (so in the source)
# [20] = 103 days after second fungicide application (so in the source)
# [21] = 110 days after second fungicide application (so in the source)
# [22] = 117 days after second fungicide application (so in the source)
# [23] = glasshouse trial, statement in words
smiles,measurement,setting,value
"Cn1cc(C(=O)Nc2ccc(F)cc2-c2ccc(Cl)c(Cl)c2)c(C(F)F)n1 [Bixafen, N-(3′,4′-dichloro-5-fluoro-1,1′-biphenyl-2-yl)-3-(difluoromethyl)-1-methyl-1H-pyrazole-4-carboxamide]",Photosynthesis (gas exchange activity of wheat ears),[1],-5.94 CO2 per ear
same,Respiration (gas exchange activity of wheat ears),[1],6.12 CO2 per ear
same,green leaf area of the flag leaf,wheat variety Ritmo [2]; [9],98.9 % leaf area
same,green leaf area of the second-from-top leaf (F-1),wheat variety Ritmo [2]; [9],98.4 % leaf area
same,green leaf area of the third-from-top leaf (F-2),wheat variety Ritmo [2]; [9],96.4 % leaf area
same,green leaf area of the flag leaf,wheat variety Ritmo [2]; [10],98.7 % leaf area
same,green leaf area of the second-from-top leaf (F-1),wheat variety Ritmo [2]; [10],98.3 % leaf area
same,green leaf area of the third-from-top leaf (F-2),wheat variety Ritmo [2]; [10],96.3 % leaf area
same,green leaf area of the flag leaf,wheat variety Ritmo [2]; [11],98.8 % leaf area
same,green leaf area of the second-from-top leaf (F-1),wheat variety Ritmo [2]; [11],98.5 % leaf area
same,green leaf area of the third-from-top leaf (F-2),wheat variety Ritmo [2]; [11],94.5 % leaf area
same,green leaf area of the flag leaf,wheat variety Ritmo [2]; [12],96.7 % leaf area
same,green leaf area of the second-from-top leaf (F-1),wheat variety Ritmo [2]; [12],94.8 % leaf area
same,green leaf area of the third-from-top leaf (F-2),wheat variety Ritmo [2]; [12],91.8 % leaf area
same,green leaf area of the flag leaf,wheat variety Ritmo [2]; [13],73.0 % leaf area
same,green leaf area of the second-from-top leaf (F-1),wheat variety Ritmo [2]; [13],60.0 % leaf area
same,green leaf area of the third-from-top leaf (F-2),wheat variety Ritmo [2]; [13],37.5 % leaf area
same,green leaf area of the flag leaf,wheat variety Ritmo [2]; [14],26.7 % leaf area
same,green leaf area of the second-from-top leaf (F-1),wheat variety Ritmo [2]; [14],9.2 % leaf area
same,green leaf area of the third-from-top leaf (F-2),wheat variety Ritmo [2]; [14],3.4 % leaf area
same,green leaf area of the second-from-top leaf (F-1),wheat variety Ritmo [2]; 49 days after second fungicide application,0 % leaf area
same,effect on the duration of the green leaf area of the wheat plant,"wheat variety Ritmo [2]; plot trial, statement in words",pronounced effect
same,green leaf area of the flag leaf (F),[3]; [15],100 % leaf area
same,green leaf area of the second-from-top leaf (F-1),[3]; [15],100 % leaf area
same,green leaf area of the third-from-top leaf (F-2),[3]; [15],100 % leaf area
same,green leaf area of the flag leaf (F),[3]; [16],100 % leaf area
same,green leaf area of the second-from-top leaf (F-1),[3]; [16],100 % leaf area
same,green leaf area of the third-from-top leaf (F-2),[3]; [16],95 % leaf area
same,green leaf area of the flag leaf (F),[3]; [17],100 % leaf area
same,green leaf area of the second-from-top leaf (F-1),[3]; [17],95 % leaf area
same,green leaf area of the third-from-top leaf (F-2),[3]; [17],80 % leaf area
same,green leaf area of the flag leaf (F),[3]; [18],95 % leaf area
same,green leaf area of the second-from-top leaf (F-1),[3]; [18],85 % leaf area
same,green leaf area of the third-from-top leaf (F-2),[3]; [18],52 % leaf area
same,green leaf area of the flag leaf (F),[3]; [19],88 % leaf area
same,green leaf area of the second-from-top leaf (F-1),[3]; [19],57 % leaf area
same,green leaf area of the third-from-top leaf (F-2),[3]; [19],29 % leaf area
same,green leaf area of the flag leaf (F),[3]; [20],65 % leaf area
same,green leaf area of the second-from-top leaf (F-1),[3]; [20],33 % leaf area
same,green leaf area of the third-from-top leaf (F-2),[3]; [20],15 % leaf area
same,green leaf area of the flag leaf (F),[3]; [21],38 % leaf area
same,green leaf area of the second-from-top leaf (F-1),[3]; [21],20 % leaf area
same,green leaf area of the third-from-top leaf (F-2),[3]; [21],6 % leaf area
same,green leaf area of the flag leaf (F),[3]; [22],15 % leaf area
same,green leaf area of the second-from-top leaf (F-1),[3]; [22],5 % leaf area
same,green leaf area of the third-from-top leaf (F-2),[3]; [22],0 % leaf area
same,effect on the duration of the green leaf area of the wheat plant,[3]; [23],pronounced effect
same,Ears/m^2,wheat variety Ritmo [4],417
same,Harvest Index,wheat variety Ritmo [4],58.5
same,Straw,wheat variety Ritmo [4],590 g m^−2
same,TKM (thousand-kernel mass),wheat variety Ritmo [4],47.7 g
same,Yield,wheat variety Ritmo [4],8.5 t ha^−1
same,Length of the flag leaf,[5]; at BBCH 83-85,28.1 cm
same,Width of the flag leaf,[5]; at BBCH 83-85,1.7 cm
same,Area of the flag leaf,"[5]; at BBCH 83-85, calculated using the formula A = 0.67 × length × width",32.01 cm^2
same,Area [rel.] of the flag leaf,"[5]; at BBCH 83-85, untreated = 100",146 rel.
same,size (length and width) of the flag leaf compared with the other comparison fungicides,[5]; [23],greatest
same,Temperature (as a measure of the transpiration activity),"[6]; BBCH 75, ear",22.3 °C
same,Temperature (as a measure of the transpiration activity),"[6]; BBCH 75, leaf",22.1 °C
same,Temperature (as a measure of the transpiration activity),"[6]; BBCH 80, ear",18.2 °C
same,Temperature (as a measure of the transpiration activity),"[6]; BBCH 80, leaf",16.4 °C
same,Temperature (as a measure of the transpiration activity),"[6]; BBCH 85, ear",24.5 °C
same,Temperature (as a measure of the transpiration activity),"[6]; BBCH 85, leaf",23.3 °C
same,Temperature (as a measure of the transpiration activity),"[6]; BBCH 90, ear",24.1 °C
same,Temperature (as a measure of the transpiration activity),"[6]; BBCH 90, lear (so in the source)",22.3 °C
same,Chlorophyll content,"wheat variety Ritmo [7]; BBCH 75 (mature milk), leaf F",1763 µg/g
same,Chlorophyll content,"wheat variety Ritmo [7]; BBCH 75 (mature milk), leaf F-1",1693 µg/g
same,Chlorophyll content,"wheat variety Ritmo [7]; BBCH 75 (mature milk), leaf F-2",1243 µg/g
same,Chlorophyll content,"wheat variety Ritmo [7]; BBCH 85 (mature dough), leaf F",738 µg/g
same,Chlorophyll content,"wheat variety Ritmo [7]; BBCH 85 (mature dough), leaf F-1",631 µg/g
same,Chlorophyll content,"wheat variety Ritmo [7]; BBCH 85 (mature dough), leaf F-2",404 µg/g
same,chlorophyll content and breakdown of chlorophyll,"wheat variety Ritmo [7]; alone or in combination with other active fungicidal ingredients, statement in words",the chlorophyll content overall is higher and the breakdown of chlorophyll is slower
same,time of heading of wheat (ears emerged),[8]; 45 days after sowing,1.8
same,time of heading of wheat (ears emerged),[8]; 50 days after sowing,15.5
same,time of heading of wheat (ears emerged),[8]; 55 days after sowing,42.2
same,time of heading of wheat (ears emerged),[8]; 60 days after sowing,57.0
same,time of heading of wheat (ears emerged),[8]; 65 days after sowing,78.0
same,time of heading of wheat (ears emerged),[8]; 70 days after sowing,88.7
same,time of heading of wheat (ears emerged),[8]; 75 days after sowing,93.5
same,time of heading of wheat (ears emerged),[8]; 80 days after sowing,96.7
same,time of heading of wheat (ears emerged),[8]; 85 days after sowing,98.5
same,uniformity of heading (ear emergence),[8]; [23],the heading is more uniform
